Patent US20180112258A1, “MEDICAL USES AND METHODS FOR TREATING CANCER USING MONOPOLAR SPINDLE 1 (MPS1) KINASE INHIBITORS” (THE INSTITUTE OF CANCER RESEARCH: ROYAL CANCER HOSPITAL, priority 2015, published 2018)
Numbering of substitutions follows the chain as printed. Where two headings read alike, the source gives them in different places.

Assays:
parental HCT116 cells = assay: Flow cytometry cell cycle profiles, parental HCT116; type: cell-based, human; conditions: parental, 24 hours
Protocol: Cells were fixed overnight at −20° C. in 70% ethanol, washed in PBS, then incubated in 10 μg/ml propidium iodide and 0.5% RNase (Sigma) for 30 min and then analysed using LSRII flow cytometer (BD Biosciences).

[1] = system: NvR12 HCT116 cells (p.C604W); assay: Flow cytometry cell cycle profiles, NvR12; type: cell-based, human; conditions: NvR12, 24 hours
Protocol: Cells were fixed overnight at −20° C. in 70% ethanol, washed in PBS, then incubated in 10 μg/ml propidium iodide and 0.5% RNase (Sigma) for 30 min and then analysed using LSRII flow cytometer (BD Biosciences). To stain for mitosis, cells were incubated for 1 hour at 4° C. with anti-MPM2 antibodies (Millipore, 05-368), then 1 hour at 4° C. with FITC-conjugated secondary antibodies (Life technology).

[2] = target: T1, recombinant full-length wild-type MPS1 (Homo sapiens, UniProt P33981); assay: Recombinant MPS1 kinase assay (electrophoretic mobility shift), WT; type: biochemical; conditions: mean ± SD, quadruplicate
T1 construct: For protein expression of full-length MPS1 proteins, Sf9 insect cells were grown at 27° C; made in house; host or cells: Sf9 insect cells (baculovirus, modified pFastBac1)
T1 sequence (P33981 1-857): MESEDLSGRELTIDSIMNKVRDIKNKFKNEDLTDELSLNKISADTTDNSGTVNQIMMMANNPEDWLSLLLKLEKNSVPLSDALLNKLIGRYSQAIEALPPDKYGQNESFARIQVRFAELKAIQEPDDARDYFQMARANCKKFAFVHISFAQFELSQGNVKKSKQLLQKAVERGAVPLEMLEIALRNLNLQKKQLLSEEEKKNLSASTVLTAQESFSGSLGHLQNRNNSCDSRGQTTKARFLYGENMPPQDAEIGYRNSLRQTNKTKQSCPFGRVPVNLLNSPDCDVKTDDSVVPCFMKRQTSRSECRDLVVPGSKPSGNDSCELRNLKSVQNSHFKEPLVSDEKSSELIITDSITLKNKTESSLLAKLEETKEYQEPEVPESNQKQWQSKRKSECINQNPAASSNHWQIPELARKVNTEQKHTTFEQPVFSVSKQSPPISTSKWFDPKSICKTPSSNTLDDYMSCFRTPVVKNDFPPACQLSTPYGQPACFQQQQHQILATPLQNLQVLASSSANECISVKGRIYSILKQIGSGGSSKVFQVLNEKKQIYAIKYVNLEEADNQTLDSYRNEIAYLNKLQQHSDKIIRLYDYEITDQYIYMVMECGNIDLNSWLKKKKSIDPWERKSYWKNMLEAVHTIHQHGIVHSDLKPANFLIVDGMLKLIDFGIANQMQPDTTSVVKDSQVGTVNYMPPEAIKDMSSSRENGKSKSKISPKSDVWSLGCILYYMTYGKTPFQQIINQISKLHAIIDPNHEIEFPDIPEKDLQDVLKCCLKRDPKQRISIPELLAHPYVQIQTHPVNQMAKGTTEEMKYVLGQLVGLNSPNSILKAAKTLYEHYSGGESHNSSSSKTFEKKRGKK
Protocol: (§1) For high ATP concentration assays, 1 mM ATP was used. An ECHO® 550 (Labcyte Inc) acoustic dispenser was used to generate duplicate 8 point dilution curves directly into 384-well low-volume polystyrene assay plates (Corning Life Sciences). The reaction was carried out for 90 min at room temperature.

[3] = target: T2, recombinant full-length MPS1 p.C604W (Homo sapiens, UniProt P33981, C604W); assay: Recombinant MPS1 kinase assay (electrophoretic mobility shift), p.C604W; type: biochemical; conditions: C604W, mean ± SD, quadruplicate
T2 construct: made in house; host or cells: Sf9 insect cells (baculovirus, modified pFastBac1)
T2 sequence (P33981 1-857 C604W): T1 sequence (P33981 1-857) with C604W
Protocol: as §1

[4] = ATP at Km, read-out: IC50 values at ATP Km
[5] = IC50 values at 1 mM ATP, 1 mM ATP

- IC50 [2, 4]: 3.3 ± 1.1 nM
- IC50 [2, 5]: 60 ± 20 nM
- IC50 [3, 4]: 13.3 ± 2.9 nM
- IC50 [3, 5]: 16.3 ± 4 nM
Compound: Cc1ncc(-c2ccc(Nc3cc4c(cn3)cc(-c3cnn(C)c3)n4C(=O)OC(C)C)cc2)n1C [Compound 2, Isopropyl 6-(4-(1,2-dimethyl-1H-imidazol-5-yl)-2-phenylamino)-2-(1-methyl-1H-pyrazol-4-yl)-1H-pyrrolo[3,2-c]pyridine-1-carboxylate]
- concentration causing loss of cell cycle profiles (parental HCT116 cells): 600 nM
- concentration causing loss of cell cycle profiles [1]: 100 nM
